Data from ChEMBL document CHEMBL5678818, “Discovery of potent SOS1 inhibitors that block RAS activation via disruption of the RAS-SOS1 interaction” (Proc Natl Acad Sci U S A, 2019).

How the values were obtained:
[1] = target: T1, Mitogen-activated protein kinase 13 (Homo sapiens) (UniProt O15264); test: Inhibition of p38-delta (unknown origin) assessed as residual activity at 1000 nM by KINOMEscan analysis relative to control
T1 sequence (whole entry): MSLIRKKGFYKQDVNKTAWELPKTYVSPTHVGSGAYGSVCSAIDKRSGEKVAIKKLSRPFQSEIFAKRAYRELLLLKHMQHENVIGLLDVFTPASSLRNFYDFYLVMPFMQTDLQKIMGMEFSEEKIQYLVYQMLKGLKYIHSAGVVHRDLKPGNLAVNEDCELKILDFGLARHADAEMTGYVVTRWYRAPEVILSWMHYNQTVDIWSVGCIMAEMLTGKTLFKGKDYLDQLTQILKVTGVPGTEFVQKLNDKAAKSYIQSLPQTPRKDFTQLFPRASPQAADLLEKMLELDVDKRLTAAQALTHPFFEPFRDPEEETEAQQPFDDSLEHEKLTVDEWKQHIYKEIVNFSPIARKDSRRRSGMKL

[2] = target: TRAF2 and NCK-interacting protein kinase (Homo sapiens) (UniProt Q9UKE5); test: Inhibition of TNIK (unknown origin) assessed as residual activity at 1000 nM by KINOMEscan analysis relative to control
Sequence of TRAF2 and NCK-interacting protein kinase (Homo sapiens) (Q9UKE5 whole entry, looked up): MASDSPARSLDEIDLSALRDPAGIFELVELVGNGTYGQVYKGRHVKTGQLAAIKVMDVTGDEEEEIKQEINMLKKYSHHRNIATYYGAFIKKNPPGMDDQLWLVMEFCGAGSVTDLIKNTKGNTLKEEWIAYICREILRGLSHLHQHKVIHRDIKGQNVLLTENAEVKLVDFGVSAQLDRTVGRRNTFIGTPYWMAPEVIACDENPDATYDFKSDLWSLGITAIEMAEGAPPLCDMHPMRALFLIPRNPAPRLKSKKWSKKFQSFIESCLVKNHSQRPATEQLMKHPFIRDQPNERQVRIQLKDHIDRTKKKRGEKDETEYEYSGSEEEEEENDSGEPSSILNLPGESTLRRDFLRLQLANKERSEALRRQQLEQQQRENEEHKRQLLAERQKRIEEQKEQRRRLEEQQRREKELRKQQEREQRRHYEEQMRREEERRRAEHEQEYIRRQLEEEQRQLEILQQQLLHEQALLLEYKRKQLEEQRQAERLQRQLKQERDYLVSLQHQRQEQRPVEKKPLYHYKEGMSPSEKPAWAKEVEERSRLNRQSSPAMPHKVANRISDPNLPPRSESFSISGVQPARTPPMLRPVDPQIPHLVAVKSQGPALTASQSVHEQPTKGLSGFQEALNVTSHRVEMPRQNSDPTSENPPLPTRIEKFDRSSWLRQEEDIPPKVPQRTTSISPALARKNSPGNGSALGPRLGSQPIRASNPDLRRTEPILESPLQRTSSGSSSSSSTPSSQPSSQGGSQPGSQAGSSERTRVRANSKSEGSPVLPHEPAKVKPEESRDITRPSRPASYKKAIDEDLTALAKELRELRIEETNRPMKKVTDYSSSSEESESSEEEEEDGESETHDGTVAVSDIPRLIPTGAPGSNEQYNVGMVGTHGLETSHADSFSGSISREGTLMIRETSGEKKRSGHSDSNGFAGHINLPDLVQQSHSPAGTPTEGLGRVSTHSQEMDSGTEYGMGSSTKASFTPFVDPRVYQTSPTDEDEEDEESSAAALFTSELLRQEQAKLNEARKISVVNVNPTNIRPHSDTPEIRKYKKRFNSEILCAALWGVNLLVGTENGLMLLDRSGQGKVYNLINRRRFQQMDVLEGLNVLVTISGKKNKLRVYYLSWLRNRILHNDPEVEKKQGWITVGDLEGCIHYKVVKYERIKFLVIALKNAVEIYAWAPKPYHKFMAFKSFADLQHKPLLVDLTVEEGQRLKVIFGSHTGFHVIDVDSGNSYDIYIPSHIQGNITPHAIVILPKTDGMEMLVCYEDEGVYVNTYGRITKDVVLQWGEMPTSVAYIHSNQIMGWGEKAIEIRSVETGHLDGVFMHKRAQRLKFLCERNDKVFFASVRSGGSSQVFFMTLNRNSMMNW

[3] = target: Angiopoietin-1 receptor (Homo sapiens) (UniProt Q02763); test: Inhibition of TIE2 (unknown origin) assessed as residual activity at 1000 nM by KINOMEscan analysis relative to control
[4] = target: Misshapen-like kinase 1 (Homo sapiens) (UniProt Q8N4C8); test: Inhibition of MINK (unknown origin) assessed as residual activity at 1000 nM by KINOMEscan analysis relative to control
Sequence of Misshapen-like kinase 1 (Homo sapiens) (Q8N4C8 whole entry, looked up): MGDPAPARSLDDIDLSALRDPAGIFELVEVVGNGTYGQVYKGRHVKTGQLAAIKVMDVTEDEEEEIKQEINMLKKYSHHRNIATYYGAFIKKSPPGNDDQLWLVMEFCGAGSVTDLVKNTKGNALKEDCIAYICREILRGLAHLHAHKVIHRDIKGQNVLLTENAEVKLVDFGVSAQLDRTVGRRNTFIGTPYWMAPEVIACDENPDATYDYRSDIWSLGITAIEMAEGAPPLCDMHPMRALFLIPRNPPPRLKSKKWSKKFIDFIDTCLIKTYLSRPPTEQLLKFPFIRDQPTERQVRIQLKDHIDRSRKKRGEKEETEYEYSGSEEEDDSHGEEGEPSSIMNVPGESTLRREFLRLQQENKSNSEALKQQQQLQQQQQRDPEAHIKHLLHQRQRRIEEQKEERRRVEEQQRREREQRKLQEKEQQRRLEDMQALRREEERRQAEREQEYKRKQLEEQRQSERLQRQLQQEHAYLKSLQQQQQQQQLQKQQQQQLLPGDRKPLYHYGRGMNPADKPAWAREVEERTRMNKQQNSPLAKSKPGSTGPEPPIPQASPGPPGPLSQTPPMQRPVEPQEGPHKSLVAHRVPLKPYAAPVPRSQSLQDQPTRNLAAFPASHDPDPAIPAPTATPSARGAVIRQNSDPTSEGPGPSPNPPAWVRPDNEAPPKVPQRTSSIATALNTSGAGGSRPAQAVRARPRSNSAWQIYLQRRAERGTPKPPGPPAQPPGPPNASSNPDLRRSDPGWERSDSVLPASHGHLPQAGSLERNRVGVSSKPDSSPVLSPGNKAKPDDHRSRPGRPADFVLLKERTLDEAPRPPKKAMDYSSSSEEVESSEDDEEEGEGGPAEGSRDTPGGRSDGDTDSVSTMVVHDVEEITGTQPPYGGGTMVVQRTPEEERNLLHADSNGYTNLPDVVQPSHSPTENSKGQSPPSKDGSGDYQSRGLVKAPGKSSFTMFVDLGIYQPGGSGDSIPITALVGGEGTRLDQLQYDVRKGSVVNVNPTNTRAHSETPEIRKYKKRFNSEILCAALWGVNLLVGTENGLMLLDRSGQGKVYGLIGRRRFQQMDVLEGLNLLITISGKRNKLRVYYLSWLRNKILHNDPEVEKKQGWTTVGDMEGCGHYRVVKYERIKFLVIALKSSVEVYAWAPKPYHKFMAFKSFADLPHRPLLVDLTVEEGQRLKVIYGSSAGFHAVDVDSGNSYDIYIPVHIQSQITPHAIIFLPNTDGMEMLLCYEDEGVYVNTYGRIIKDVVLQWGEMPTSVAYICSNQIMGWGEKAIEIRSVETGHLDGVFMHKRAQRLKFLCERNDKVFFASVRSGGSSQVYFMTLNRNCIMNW

[5] = target: T2, Tyrosine-protein kinase TXK (Homo sapiens) (UniProt P42681); test: Inhibition of TXK (unknown origin) assessed as residual activity at 1000 nM by KINOMEscan analysis relative to control
T2 sequence (whole entry): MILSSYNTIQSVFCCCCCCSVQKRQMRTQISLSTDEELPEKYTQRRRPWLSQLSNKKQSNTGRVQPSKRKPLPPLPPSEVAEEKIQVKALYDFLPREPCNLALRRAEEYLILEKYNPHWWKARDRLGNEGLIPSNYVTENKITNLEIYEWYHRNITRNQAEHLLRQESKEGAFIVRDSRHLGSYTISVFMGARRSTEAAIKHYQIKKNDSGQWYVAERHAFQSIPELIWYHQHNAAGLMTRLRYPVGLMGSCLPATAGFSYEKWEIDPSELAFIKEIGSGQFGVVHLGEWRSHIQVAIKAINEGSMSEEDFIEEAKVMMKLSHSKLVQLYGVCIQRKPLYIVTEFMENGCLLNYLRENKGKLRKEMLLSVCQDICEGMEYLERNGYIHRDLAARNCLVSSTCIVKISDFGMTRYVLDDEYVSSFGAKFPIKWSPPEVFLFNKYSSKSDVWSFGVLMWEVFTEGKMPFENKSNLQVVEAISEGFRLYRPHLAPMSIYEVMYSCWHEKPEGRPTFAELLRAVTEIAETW

[6] = target: Myosin-IIIa (Homo sapiens) (UniProt Q8NEV4); test: Inhibition of MYO3A (unknown origin) assessed as residual activity at 1000 nM by KINOMEscan analysis relative to control
Sequence of Myosin-IIIa (Homo sapiens) (Q8NEV4 whole entry): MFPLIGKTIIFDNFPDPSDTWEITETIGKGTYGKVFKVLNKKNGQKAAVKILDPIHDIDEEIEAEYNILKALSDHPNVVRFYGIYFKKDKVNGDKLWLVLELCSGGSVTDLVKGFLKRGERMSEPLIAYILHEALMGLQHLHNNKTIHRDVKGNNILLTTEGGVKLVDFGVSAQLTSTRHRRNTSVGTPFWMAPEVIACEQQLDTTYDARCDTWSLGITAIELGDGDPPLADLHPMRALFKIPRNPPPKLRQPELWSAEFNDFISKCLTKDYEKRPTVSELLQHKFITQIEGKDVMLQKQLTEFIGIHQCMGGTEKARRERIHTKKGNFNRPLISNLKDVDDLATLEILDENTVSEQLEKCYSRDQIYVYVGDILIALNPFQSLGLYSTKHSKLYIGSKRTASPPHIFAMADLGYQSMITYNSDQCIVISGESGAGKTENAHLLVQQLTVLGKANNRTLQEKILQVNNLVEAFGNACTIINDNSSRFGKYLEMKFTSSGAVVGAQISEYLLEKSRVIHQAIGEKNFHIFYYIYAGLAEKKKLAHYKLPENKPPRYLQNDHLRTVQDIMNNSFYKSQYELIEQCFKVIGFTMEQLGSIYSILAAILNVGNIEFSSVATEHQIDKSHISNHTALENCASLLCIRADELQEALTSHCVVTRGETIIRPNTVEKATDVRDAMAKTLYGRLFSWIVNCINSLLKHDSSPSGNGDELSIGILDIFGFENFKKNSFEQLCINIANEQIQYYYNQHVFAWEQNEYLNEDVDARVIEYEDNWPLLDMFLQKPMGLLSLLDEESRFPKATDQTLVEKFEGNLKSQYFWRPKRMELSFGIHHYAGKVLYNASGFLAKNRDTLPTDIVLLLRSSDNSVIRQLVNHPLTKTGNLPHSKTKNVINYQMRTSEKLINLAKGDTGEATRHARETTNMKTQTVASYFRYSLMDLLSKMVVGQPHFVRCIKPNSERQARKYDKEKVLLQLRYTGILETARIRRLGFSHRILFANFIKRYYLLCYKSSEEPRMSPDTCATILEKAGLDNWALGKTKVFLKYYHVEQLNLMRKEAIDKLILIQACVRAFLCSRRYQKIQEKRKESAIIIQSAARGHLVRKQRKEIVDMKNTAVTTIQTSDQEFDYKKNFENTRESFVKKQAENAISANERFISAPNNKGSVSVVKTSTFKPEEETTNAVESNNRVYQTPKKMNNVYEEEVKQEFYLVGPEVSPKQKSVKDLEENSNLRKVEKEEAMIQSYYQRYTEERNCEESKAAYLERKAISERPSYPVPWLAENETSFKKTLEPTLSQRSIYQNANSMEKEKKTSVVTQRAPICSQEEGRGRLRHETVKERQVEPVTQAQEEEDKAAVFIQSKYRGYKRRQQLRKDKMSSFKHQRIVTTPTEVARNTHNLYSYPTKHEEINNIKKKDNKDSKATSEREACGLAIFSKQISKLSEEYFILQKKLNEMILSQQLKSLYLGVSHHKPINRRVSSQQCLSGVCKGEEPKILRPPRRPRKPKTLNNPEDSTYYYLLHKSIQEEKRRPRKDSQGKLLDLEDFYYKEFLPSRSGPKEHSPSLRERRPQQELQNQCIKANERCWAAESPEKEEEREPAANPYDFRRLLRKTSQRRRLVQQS

[7] = target: Bone morphogenetic protein receptor type-1B (Homo sapiens) (UniProt O00238); test: Inhibition of BMPR1B (unknown origin) assessed as residual activity at 1000 nM by KINOMEscan analysis relative to control
Sequence of Bone morphogenetic protein receptor type-1B (Homo sapiens) (O00238 whole entry): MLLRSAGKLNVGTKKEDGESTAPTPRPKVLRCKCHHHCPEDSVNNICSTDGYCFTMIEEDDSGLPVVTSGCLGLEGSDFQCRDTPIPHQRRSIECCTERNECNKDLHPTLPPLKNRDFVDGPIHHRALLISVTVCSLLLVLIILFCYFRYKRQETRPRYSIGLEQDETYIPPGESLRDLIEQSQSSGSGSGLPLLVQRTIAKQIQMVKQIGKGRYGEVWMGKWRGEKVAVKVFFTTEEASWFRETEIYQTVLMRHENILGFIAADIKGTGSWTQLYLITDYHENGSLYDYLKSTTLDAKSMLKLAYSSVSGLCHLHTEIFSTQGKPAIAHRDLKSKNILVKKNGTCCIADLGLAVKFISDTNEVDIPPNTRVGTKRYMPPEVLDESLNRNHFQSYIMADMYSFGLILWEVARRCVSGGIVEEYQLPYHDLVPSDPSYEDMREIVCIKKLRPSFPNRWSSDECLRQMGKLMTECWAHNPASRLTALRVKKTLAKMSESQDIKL

[8] = target: T3, Ephrin type-A receptor 8 (Homo sapiens) (UniProt P29322); test: Inhibition of EPHA8 (unknown origin) assessed as residual activity at 1000 nM by KINOMEscan analysis relative to control
T3 sequence (whole entry): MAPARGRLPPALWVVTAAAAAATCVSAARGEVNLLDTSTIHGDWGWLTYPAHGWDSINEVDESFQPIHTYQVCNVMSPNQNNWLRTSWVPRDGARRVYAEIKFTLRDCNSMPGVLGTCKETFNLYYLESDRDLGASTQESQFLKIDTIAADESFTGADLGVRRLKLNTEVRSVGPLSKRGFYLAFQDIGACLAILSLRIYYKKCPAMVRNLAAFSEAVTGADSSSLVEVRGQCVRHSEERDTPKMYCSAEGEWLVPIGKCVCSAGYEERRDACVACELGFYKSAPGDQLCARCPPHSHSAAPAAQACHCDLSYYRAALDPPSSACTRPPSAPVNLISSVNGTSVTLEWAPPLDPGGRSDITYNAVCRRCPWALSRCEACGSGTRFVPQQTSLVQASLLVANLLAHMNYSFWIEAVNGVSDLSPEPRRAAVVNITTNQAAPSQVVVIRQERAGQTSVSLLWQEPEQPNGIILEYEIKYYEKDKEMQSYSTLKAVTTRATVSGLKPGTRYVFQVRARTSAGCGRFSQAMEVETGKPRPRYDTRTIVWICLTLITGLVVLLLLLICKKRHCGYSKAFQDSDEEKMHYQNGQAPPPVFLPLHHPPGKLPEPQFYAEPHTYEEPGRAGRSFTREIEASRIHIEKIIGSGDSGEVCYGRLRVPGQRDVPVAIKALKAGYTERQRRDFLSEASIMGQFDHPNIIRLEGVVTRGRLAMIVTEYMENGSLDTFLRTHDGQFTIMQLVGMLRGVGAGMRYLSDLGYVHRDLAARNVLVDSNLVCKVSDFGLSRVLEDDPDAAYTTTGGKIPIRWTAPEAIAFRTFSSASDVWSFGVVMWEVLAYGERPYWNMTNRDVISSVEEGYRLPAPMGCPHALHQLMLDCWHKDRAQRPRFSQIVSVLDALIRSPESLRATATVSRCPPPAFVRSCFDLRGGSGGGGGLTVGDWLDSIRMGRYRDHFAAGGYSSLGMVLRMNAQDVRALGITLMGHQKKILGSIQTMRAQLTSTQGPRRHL

Row | Compound | Activity [1] | Activity [2] | Activity [3] | Activity [4] | Activity [5] | Activity [6] | Activity [7] | Activity [8]
1 | COc1cc2nc(C)nc(N[C@H](C)c3cccc(-c4cn[nH]c4)c3)c2cc1OC | 90% | 87% | 81% | 100% | 83% | 92% | 98% | 100%
2 | COc1cc2ncnc(N[C@H](C)c3cccc4ccccc34)c2cc1OC | 100% | 100% | 100% | 74% | 100% | 97% | 94% | 94%
